Drawing on patent US7947720B2, “3,4-di-substituted cyclobutene-1,2-diones as CXC-chemokine receptor ligands” (Schering Corporation, priority 2001, dated 2011), this text covers Ki for one compound.

The test deals with T1, hCXCR2-CHO overexpressing membranes (Homo sapiens, UniProt P25025).
T1 construct: purchased Biosignal; host or cells: CHO cells (membranes)
T1 sequence (P25025 1-360): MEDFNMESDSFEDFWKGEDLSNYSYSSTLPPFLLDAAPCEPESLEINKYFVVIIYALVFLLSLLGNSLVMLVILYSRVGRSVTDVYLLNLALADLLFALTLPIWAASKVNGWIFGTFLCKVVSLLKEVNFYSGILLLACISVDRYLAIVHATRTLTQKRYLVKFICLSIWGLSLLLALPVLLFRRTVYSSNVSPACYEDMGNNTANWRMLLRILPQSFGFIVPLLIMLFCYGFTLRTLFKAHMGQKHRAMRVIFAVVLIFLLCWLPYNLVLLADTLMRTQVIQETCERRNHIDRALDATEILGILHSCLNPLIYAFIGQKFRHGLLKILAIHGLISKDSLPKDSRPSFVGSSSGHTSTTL
Put plainly: CXCR2 SPA Assay. It is filed as binding. As to conditions: [125I]-IL-8 0.1 nM.

Procedure: For each well of a 96 well plate, a reaction mixture of 4 μg hCXCR2-CHO overexpressing membranes (Biosignal) and 200 μg/well WGA-SPA beads (Amersham) in 100 μl was prepared in CXCR2 assay buffer (25 mM HEPES, pH 7.4, 2 mM CaCl2, 1 mM MgCl2). A 0.4 nM stock of ligand, [125I]-IL-8 (NEN), was prepared in the CXCR2 assay buffer. 20× stock solutions of test compounds were prepared in DMSO (Sigma). A 6× stock solution of GRO-α (R&D) was prepared in CXCR2 assay buffer. The above solutions were added to a 96-well assay plate (PerkinElmer or Corning) as follows: 10 μl test compound or DMSO, 40 ul CXCR2 assay buffer or GRO-α stock, 100 μl of reaction mixture, 50 μl of ligand stock (Final [Ligand]=0.1 nM). When 40× stock solutions of test compounds in DMSO were prepared, then the above protocol was used except instead 5 μl test compound or DMSO and 45 μl CXCR2 assay buffer were used. The assay plates were shaken for 5 minutes on a plate shaker, then incubated for 2-8 hours before cpm/well were determined in Microbeta Trilux counter (PerkinElmer). % Inhibition of total binding minus non-specific binding (250 nM Gro-α or 50 μM antagonist) was determined and IC50 values calculated.

A word on the Ki: it is a measure of affinity in units of concentration, obtained from inhibition or displacement. High values mean lower affinity, low ones higher affinity. As for `CC[C@@H](Nc1c(Nc2cccc(C(=O)N(C)C)c2O)c(=O)c1=O)c1cc(C(C)C)co1` [Example 360.106], affinity was put at a Ki of 0.8 nM. This lies in the sub-nanomolar range.
